“Also recorded” adds a separate entry of the source.
Legend:
[1] = target: T1, FKBPFR3GS fusion receptor (Homo sapiens, UniProt P62942); experiment: Binding assay of ligand-dye on FKBPFR3GS (FF3) fusion receptor stably expressed on human T cell, flow cytometry
T1 construct: human FRa signal peptide (1-24 aa of human FRa) (N); expressed in transfected cells; host or cells: human T cells / Jurkat T cells, lentiviral transduction
Experimental: For binding assay, cells were incubated with ligand-dye alone or with ligand-dye and free ligands (100×, preincubated for 30 min) for 30 min, at 4 degree. Cells were washed 3 times after incubation, and re-suspended in 2% FBS PBS, 7-AAD were added to gate out the dead cells. […] FRET is visualized by the loss of intensity of FA-Rhodamine as its energy transferred to FA-OTL38 on the same or nearby receptor, detected by BD Fortessa flow cytometer. Results were analyzed using Flow Jo software.
For binding assay, cells were incubated with ligand-dye alone or with ligand-dye and free ligands (100×, preincubated for 30 min) for 30 min, at 4 degree. Cells were washed 3 times after incubation, and re-suspended in 2% FBS PBS, 7-AAD were added to gate out the dead cells. BD Fortessa flow cytometer were used. Results were analyzed using FlowJo software.

[2] = system: 4M5.3FR+ population in a mixed human T cell culture; experiment: Killing of 4M5.3FR+ population in a mixed human T cell culture; format: cell-based
4M5.3FR+ human T cells = experiment: Cell viability assay, 4M5.3FR+ human T cells; format: cell-based
[3] = system: FMC63+4M5.3FR+hT cell towards Raji cell; experiment: CAR T cell lysis effect, FMC63+4M5.3FR+ hT cell towards Raji cell; format: cell-based, human
Experimental: 1×10^5 CAR T and certain number of Raji cell were co-incubated in 96 well plate, according to the E:T ratio, with or without the treatment drug. After 24 h, 100 ul supernatant were taken out for LDH assay. Lysis percentage were calculated as (treatment group-CAR T only)/(maximum lysis-CAR T only) %

FKBP51 = target: T2, FKBP51 (Homo sapiens, UniProt Q13451); settings: read-out: KD FK506; cited from earlier work
T2 sequence (Q13451 1-457): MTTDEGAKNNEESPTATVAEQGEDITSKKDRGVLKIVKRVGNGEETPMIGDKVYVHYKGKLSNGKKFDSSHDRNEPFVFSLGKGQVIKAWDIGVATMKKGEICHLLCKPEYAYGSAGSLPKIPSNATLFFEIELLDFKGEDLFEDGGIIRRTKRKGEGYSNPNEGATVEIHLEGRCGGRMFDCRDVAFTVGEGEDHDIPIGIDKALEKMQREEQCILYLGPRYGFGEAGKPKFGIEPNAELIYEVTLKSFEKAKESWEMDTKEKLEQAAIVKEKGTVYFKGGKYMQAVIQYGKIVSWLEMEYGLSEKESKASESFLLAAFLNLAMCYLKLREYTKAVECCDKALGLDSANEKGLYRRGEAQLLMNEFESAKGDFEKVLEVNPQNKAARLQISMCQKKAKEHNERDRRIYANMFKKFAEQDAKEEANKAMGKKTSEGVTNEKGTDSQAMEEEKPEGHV

[4] = target: T3, FKBPFR1GS fusion receptor (Homo sapiens, UniProt P62942); experiment: Interference/FRET binding assay in FKBPFR1GS (FF1) fusion receptor Jurkat cells
T3 construct: human FRa signal peptide (1-24 aa of human FRa) (N); expressed in transfected cells; host or cells: Jurkat cells, lentiviral transduction
T3 sequence (P62942 with tags, fused parts or gaps): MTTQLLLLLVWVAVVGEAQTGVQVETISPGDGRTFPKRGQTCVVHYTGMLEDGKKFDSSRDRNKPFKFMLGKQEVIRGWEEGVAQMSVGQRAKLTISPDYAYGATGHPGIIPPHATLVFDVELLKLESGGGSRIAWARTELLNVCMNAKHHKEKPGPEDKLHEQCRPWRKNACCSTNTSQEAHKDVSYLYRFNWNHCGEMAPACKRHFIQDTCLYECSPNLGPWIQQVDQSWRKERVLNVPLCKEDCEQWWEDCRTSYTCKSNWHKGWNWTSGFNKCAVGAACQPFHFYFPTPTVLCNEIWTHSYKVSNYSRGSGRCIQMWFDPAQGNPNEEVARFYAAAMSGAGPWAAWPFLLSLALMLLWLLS
Experimental: Cells were washed 3 times after incubation, and re-suspended in 2% FBS PBS, 7-AAD were added to gate out the dead cells. […] Results were analyzed using Flow Jo software. […]

FF3+ human T cell = settings: 100× preincubation with FA
Experimental: Cells were seeded to 96 well plate and incubated with different concentration of certain ligand-cytotoxic drug for 2 h, with or without 100× preincubation of the free ligand competition. After 2 h incubation, cells were washed by warm medium 3 times and replenished with fresh medium. After 72 h, cell number were tested by CellTiter-Glo® assay (G7570, Promega) or quantified by ligand-dye staining of receptor positive cell.

[5] = scFv against FITC; cited from earlier work

T1 sequence (P62942 with tags, fused parts or gaps): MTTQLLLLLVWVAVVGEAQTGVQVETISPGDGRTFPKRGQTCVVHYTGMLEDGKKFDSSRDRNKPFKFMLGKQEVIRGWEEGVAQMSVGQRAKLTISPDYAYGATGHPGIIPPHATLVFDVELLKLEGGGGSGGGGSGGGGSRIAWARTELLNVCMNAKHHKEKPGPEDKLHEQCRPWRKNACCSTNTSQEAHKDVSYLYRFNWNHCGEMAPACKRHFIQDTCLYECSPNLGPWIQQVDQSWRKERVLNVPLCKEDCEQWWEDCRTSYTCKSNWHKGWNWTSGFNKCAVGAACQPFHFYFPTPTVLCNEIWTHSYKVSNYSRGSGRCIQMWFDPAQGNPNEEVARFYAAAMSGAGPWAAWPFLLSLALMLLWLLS

## CO[C@H]1C[C@@H](C)[C@@]2(O)O[C@H]1[C@H](OC)C[C@H](C)C/C(C)=C\[C@H](C/C=C/c1ccc(C(=O)NCCCOCCOCCOCCCNC(=O)c3ccc(-c4c5ccc(=[N+](C)C)cc-5oc5cc(N(C)C)ccc45)c(C(=O)O)c3)cc1)C(=O)C[C@H](O)[C@@H](C)[C@@H](/C(C)=C/[C@@H]1CC[C@@H](O)[C@H](OC)C1)CC(=O)C1CCCCN1C(=O)C2=O (stereo partly drawn) [FK506-Rhodamine]
[1]; FF3 (3GS linker) compared to FF1, 10 nM FA
  binding of FK506-Rhodamine in the presence of FA: preserves the binding

## COc1cc2cc(c1Cl)N(C)C(=O)C[C@H](OC(=O)[C@H](C)N(C)C(=O)CCC(C)(C)SSCCNC(=S)Nc1cccc3c1C(=O)OC31c3ccc(O)cc3Oc3cc(O)ccc31)C1(C)O[C@H]1[C@H](C)C1CC(O)(NC(=O)O1)[C@H](OC)/C=C\C=C(\C)C2 (stereo partly drawn) [FITC-DM4]
[2]; 4M5.3FR+ cells, increasing concentration
  killing of 4M5.3FR+ population in mixed human T cell culture: specifically kill the 4M5.3FR+ population
[2]; 4M5.3FR- cells, high concentration, bystander effect
  killing of 4M5.3FR- cells in mixed human T cell culture: killed also through released drugs and bystander effect at high concentration
4M5.3FR+ human T cells; 2 h incubation, read after 72 h
  killing of 4M5.3FR+ human T cells: specifically kill

## Cc1nc(Nc2ncc(C(=O)Cc3c(C)cccc3Cl)s2)cc(N2CCN(CCOC(=O)OCCSSCCNC(=S)Nc3ccc4c(c3)C(=O)OC43c4ccc(O)cc4Oc4cc(O)ccc43)CC2)n1 [FITC-Dasatinib]
[3]
  lysis effect of FMC63+4M5.3FR+ hT cell towards Raji cell: decrease the lysis effect

## FITC sodium
4M5.3FR+ human T cells; 100× preincubation
  competition of receptor mediated killing effect by free FITC sodium: blocks the receptor mediated killing effect

## C=CC[C@@H]1/C=C(\C)C[C@H](C)C[C@H](OC)[C@H]2O[C@@](O)(C(=O)C(=O)N3CCCC[C@H]3C(=O)O[C@H](/C(C)=C/[C@@H]3CC[C@@H](O)[C@H](OC)C3)[C@H](C)[C@@H](O)CC1=O)[C@H](C)C[C@@H]2OC [FK506]
FKBP51
  Kd: ~104 nM

## CCC(C)(C)C(=O)C(=O)N1CCCC[C@H]1C(=O)O[C@H](CCc1ccc(OC)c(OC)c1)c1cccc(OCC(=O)O)c1 [SLF]
[1]; SLF vs FK506
  times lower binding affinity to FKBPFR fusion receptor compared to parent ligand FK506: 10 times
[1]; free SLF 100×, preincubation
  competition of SLF-FITC binding by free SLF: blocks SLF-FITC binding; also recorded: blocks this binding

## Nc1nc(=O)c2nc(CNc3ccc(C(=O)N[C@@H](CCC(=O)O)C(=O)O)cc3)cnc2[nH]1 [Folate acid]
[4]; FKBPFR1GS fusion protein
  concentration at which Folate acid totally abolishes FK506-Rhodamine binding: 50 nM
[4]; FKBPFR1GS fusion protein, lowest blocking concentration
  concentration at which Folate acid blocks the binding of FK506-Rhodamine: ≥ 10 pM
FF3+ human T cell
  competition of FA-Tubulysin killing effect by FA: blocks the effect

## COc1ccc(CCC(OC(=O)C2CCCCN2C(=O)C(=O)C(C)(C)C)c2cccc(NC(=O)CCC(=O)NCCOCCOCCOCCNC(=S)Nc3ccc(-c4c5ccc(=O)cc-5oc5cc(O)ccc45)c(C(=O)O)c3)c2)cc1OC (stereo not drawn) [SLF-FITC]
[1]; FKBPFR3GS fusion receptor stably expressed on human T cell, 30 min, 4 degree
  Kd: 62 nM

## OTL38
[4]; FKBPFR1GS jurkat cell, FK506-Rhodamine donor, OTL38 acceptor
  FRET: FK506-Rhodamine intensity after binding to OTL38: decreased FK506-Rhodamine intensity

B1: 4M5.3: scFv against FITC, SEQ ID NO:19 (protein)
scFv: DVVMTQTPLSLPVSLGDQASISCRSSQSLVHSNGNTYLRWYLQKPGQSPKVLIYKVSNRVSGVPDRFSGSGSGTDFTLKINRVEAEDLGVYFCSQSTHVPWTFGGGTKLEIKSSADDAKKDAAKKDDAKKDDAKKDGGVKLDETGGGLVQPGGAMKLSCVTSGFTFGHYWMNWVRQSPEKGLEWVAQFRNKPYNYETYYSDSVKGRFTISRDDSKSSVYLQMNNLRVEDTGIYYCTGASYGMEYLGQGTSVTVSS
modifications: A synthetic scFv against FITC 4M5.3(Kd = 200pM)
[5]
  Kd: 0.2 nM
